The source of these data is patent US10301265B2 (priority 2008, dated 2019).

Several values for one entry are separate records, joined by “and”; a condition that tells them apart may be missing. Equal entries are not always repeated. Where two headings read alike, the source gives them in different places. Marks after values point to notes of the source that are not given here.

For data set [1], the system named is BoNT/A-induced neuromuscular block in mouse phrenic nerve hemidiaphragm.
For data set [2], the target named is BoNT/A (Clostridium botulinum, UniProt P0DPI0). Description: biochemical. To be noted: for inhibition at 5 µM: read-out: % Inhibition against BoNT/A (5 μM).
Sequence of BoNT/A (P0DPI0 1-448 limits assumed): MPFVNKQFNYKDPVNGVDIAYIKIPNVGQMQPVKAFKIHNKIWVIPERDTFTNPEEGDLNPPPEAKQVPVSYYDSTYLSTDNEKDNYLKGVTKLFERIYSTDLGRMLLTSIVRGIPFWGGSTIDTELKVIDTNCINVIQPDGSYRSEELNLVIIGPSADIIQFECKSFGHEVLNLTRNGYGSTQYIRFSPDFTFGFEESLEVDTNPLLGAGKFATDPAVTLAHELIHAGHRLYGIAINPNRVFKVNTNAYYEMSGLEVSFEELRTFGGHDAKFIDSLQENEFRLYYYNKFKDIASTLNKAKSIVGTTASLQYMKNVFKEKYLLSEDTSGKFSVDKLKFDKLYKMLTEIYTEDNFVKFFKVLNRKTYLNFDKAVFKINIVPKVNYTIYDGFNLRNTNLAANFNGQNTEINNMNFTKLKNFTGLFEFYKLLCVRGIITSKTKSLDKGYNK
For data set [3], the system named is BoNT/A-mediated cleavage of intracellular SNAP-25 in N2a cells. Format: cell-based, murine. To be noted: 10 μM.
In data set [4] the target is recombinant full-length BoNT/A light chain (rALC) (Clostridium botulinum, UniProt P0DPI0). Description: biochemical. To be noted: read-out: % Inhibition Against rALC.
Sequence of recombinant full-length BoNT/A light chain (rALC) (P0DPI0 2-448 limits assumed): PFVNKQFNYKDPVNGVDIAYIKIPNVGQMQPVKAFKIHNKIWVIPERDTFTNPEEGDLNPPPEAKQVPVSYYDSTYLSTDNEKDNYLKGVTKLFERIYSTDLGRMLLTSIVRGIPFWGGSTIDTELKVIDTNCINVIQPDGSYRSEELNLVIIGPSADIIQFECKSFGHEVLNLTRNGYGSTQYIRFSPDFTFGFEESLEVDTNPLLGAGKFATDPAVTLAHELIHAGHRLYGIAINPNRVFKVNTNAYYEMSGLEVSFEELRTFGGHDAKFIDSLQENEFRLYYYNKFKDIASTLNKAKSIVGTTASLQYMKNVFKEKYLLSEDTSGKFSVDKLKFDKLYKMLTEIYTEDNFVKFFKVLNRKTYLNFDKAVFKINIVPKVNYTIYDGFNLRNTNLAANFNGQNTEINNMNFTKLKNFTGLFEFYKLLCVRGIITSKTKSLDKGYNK
The subject of data set [5] is neuroblastoma N2a cells. To be noted: for concentration well-tolerated by the cells / concentration toxic to N2a cells: mouse.
Data set [6] addresses recombinant full-length BoNT/B light chain (rBLC) (Clostridium botulinum, UniProt P10844). Description: biochemical. The following applies: for inhibition at 20 µM: read-out: % Inhibition Against rBLC.

The IC50 is the concentration at which inhibition is half-maximal.

Sequence of recombinant full-length BoNT/B light chain (rBLC) (P10844 2-441 limits assumed): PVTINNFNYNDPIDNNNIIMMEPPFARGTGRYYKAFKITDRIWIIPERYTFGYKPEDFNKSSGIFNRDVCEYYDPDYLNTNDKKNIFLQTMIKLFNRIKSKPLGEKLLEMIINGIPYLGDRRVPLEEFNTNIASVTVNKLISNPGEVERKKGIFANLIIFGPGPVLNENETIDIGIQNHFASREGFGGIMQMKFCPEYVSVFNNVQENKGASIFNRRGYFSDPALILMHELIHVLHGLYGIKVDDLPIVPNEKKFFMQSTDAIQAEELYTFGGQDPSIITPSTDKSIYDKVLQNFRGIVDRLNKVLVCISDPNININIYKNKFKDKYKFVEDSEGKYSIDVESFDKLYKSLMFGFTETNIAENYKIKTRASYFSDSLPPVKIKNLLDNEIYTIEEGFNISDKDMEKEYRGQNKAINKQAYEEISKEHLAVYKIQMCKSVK

For the compound “CRATKML [Ac-CRATKML-NH2, reference compound]”, the “Average Time to 50% Loss of Twitch Tension” value in data set [1] is 52.70 ± 9.30^c min and 65.0 ± 11.5^c min.
`Oc1c(C(Nc2cccnc2)c2ccccc2F)cc(Cl)c2cccnc12` (stereo not drawn) [Compound 5116-052A]: in data set [2], the IC50 was below 1000 nM and the inhibition at 5 µM worked out at 97.5%.
As for `CCOc1ccc(C(Nc2cccnc2)c2cc(Cl)c3cccnc3c2O)cc1` (racemic) [CB 7969312], the “inhibition of SNAP-25 cleavage” value in data set [3] is recorded as “near-to-complete inhibition”. Also, the inhibition at 20 µM in data set [4] is 96.2 ± 1.2%. Besides, in data set [5], the “cell toxicity” value is “non-toxic to cells” and the “concentration well-tolerated by the cells” value (“concentration well-tolerated” below) is reported as “up to 50 μM”. Moreover, the inhibition at 20 µM in data set [6] is 31.2 ± 3%.
On to `O=[N+]([O-])c1ccc(NC(c2ccccc2)c2ccc3cccnc3c2O)cc1` (stereo not drawn) [NSC 1010], for which the “concentration toxic to N2a cells” value in data set [5] is at least 10 µM. Further, the “inhibition of BoNT serotype B light chain” value in data set [6] was “failed to inhibit”.
For `Cc1ccc2ccc(C(Nc3cccnc3)c3ccccc3)c(O)c2n1` (stereo not drawn) [Compound 5116-047A], the inhibition at 5 µM in data set [2] was 83%. In addition, the IC50 in data set [2] (read-out: IC50) is 1400 nM.
As for `Oc1c(C(Nc2cccnc2)c2ccccc2F)ccc2cccnc12` (racemic) [CB 7968218], in data set [3], the “protection from SNAP-25 cleavage” value stood at 68%. In addition, the inhibition at 20 µM in data set [4] came out at 92.8 ± 0.8%. Moreover, in data set [5], the “cell toxicity” value was “non-toxic to cells” and the “concentration toxic to N2a cells” value is listed as “above 45 μM”. Also, the “effective concentration of inhibitor required for maximum protection” value in data set [1] was found to be 10 µM. Besides, in data set [6], the inhibition at 20 µM was 16.8 ± 2.2%.
With `Oc1c(C(Nc2cccnc2)c2ccc(F)cc2)cc(Cl)c2cccnc12` (stereo not drawn) [Compound 5116-051A], in data set [2], the 50% inhibitory concentration (IC50) was below 1000 nM and the inhibition at 5 µM is 91%.
The corresponding values for `Oc1c(C(Nc2cccnc2)c2ccc(F)cc2)ccc2cccnc12` (stereo not drawn) [Compound 5116-050A] are 1200 nM and 86.7%.
Taken in the same sequence, the figures for `Nc1cc(C(Nc2ccccn2)c2ccccc2)c(O)c2ncccc12` (stereo not drawn) [Compound 4874-051A] were 2200 nM and 94%.
For `Cc1ccc2ccc(C(Nc3cccnc3)c3ccc(F)cc3)c(O)c2n1` (stereo not drawn) [Compound 5116-048A], the inhibition at 5 µM in data set [2] amounted to 87%. Also, the half-inhibitory concentration (IC50) in data set [2] (read-out: IC50) amounted to 800 nM.
As for `Oc1c(C(Nc2cccc3cccnc23)c2ccccc2)ccc2cccnc12` (racemic) [NSC 84096], the “protection from SNAP-25 cleavage” value in data set [3] was 66%. Also, the inhibition at 20 µM in data set [4] worked out at 91.9 ± 1.7%. Also, in data set [5], the “cell toxicity” value is “non-toxic to cells” and the “concentration well-tolerated” value is given as “up to 50 μM”. For the same compound, in data set [1], the “Average Time to 50% Loss of Twitch Tension” value was 59.7 ± 4.9^d min and the “effective concentration of inhibitor required for maximum protection” value is 20 µM. Also, the inhibition at 20 µM in data set [6] is 6.9%.
For `Oc1c(C(Nc2cccnc2)c2ccc(C(F)(F)F)cc2)ccc2cccnc12` (racemic) [CB 7967495], the “inhibition of SNAP-25 cleavage” value in data set [3] is given as “near-to-complete inhibition”. Further, the results for the inhibition at 20 µM in data set [4] and in data set [6] were 92.7 ± 1.5% and 30.2 ± 2.4%, respectively. Moreover, the “cell toxicity” value in data set [5] is listed as “non-toxic to cells”. Besides, in data set [5], the “concentration well-tolerated” value is on record as “up to 50 μM”. The “effective concentration of inhibitor required for maximum protection” value in data set [1] was determined as 5 µM.
